Source: patent US9493479B2 (Merck Sharp & Dohme Corp., priority 2013, dated 2016)
Where a name gives a salt, the structure may show the parent alone.

What was measured:
WT-Integrase = molecular target: T1, WT-Integrase (Human immunodeficiency virus type 1 group M subtype B, UniProt P04585); test: InSTANT integrase DNA strand transfer functional assay; format: biochemical, HIV; details: SPA strand transfer, 15 minutes at 37° C.
T1 construct: assembled PVT SPA beads with WT-Integrase and boitinylated DNA
Description: InSTANT is an integrase DNA strand transfer functional assay used to determine potency of InSTIs, which was carried out as described below. 8 μl of SPA buffer (27.8 mM Hepes, 27.8 mM MgCl2, 111.1 μg/mL BSA, 5.56 mM βME, and 57.1 mM NaCl) containing 5 nM 3H-labeled target DNA (prepared separately) and 10 μl of assembled PVT SPA beads with WT-Integrase and boitinylated DNA (prepared separately) were added to the assay plate which contained 0.4 μl of test compound(s) or positive or negative control compound(s) per well. The assay plate was shaken for 1 minute on HT-91002 1.0 MM shaker and then was sealed and incubated for 15 minutes at 37° C. The assay reaction was quenched by adding 4 μl of 1.25 M EDTA to each well of the assay plate with mixing. After incubating the plate at room temperature for 1 hour, the quenched plate was spun at 200 g for 1 minute and read on TopCount (1 minute per well). Percent inhibition was calculated by [1−(Sample−Min)/(Max−Min)]*100. Compound potency IP or IC50 was determined by a 4-parameter dose response curve analysis.

HIV-1 (NL4-3 strain) = test: ViKinG (Viral Kinetics GFP Reporter) assay for inhibition of HIV replication; format: cell-based; details: MT4-GFP cells infected with HIV-1 NL4-3, RPMI + 10% or 50% NHS (not given), infected cells at 48 h / 24 h
Source text: The ViKinG (Viral Kinetics GFP Reporter) assay is an in vitro kinetic assay that employs the MT4-gag-GFP reporter cell line (Wang et al., “Assessment of the susceptibility of mutant HIV-1 to antiviral agents.” J Virological Methods 165:230-37 (2010)) to quantify the number of new cells infected in each round of replication. The purpose of the ViKinG assay is to identify agents that inhibit HIV progression. Briefly, HIV infection results in tat transactivation of the stably expressed HIV LTR promoter to drive gagGFP expression. Thus, an increase in the number of GFP-MT4 cells results following HIV infection.
MT4-GFP cells (250,000 cells/m1) were bulk-infected with HIV-1 (NL4-3 strain) at low multiplicity of infection (MOT) in RPMI+10% FBS for 24 hours. Cells were then washed once in RPMI+10% FBS and resuspended RPMI+10% or 50% normal human serum (NHS). Test compounds were serial-diluted in DMSO on an ECHO® liquid handling platform (Labcyte Corp., Sunnyvale, Calif.), along with a triple drug control (integrase, protease and NNRTI compounds). The infected MT4-GFP cells were added to a 384-well poly-D-lysine coated black plate with clear bottom in which the diluted test compounds were placed. The cells were seeded at 8,000 cells per well and the final DMSO concentration was 0.4%. The infected cells (Green GFP cells) were quantified at both 24 and 48 hours post incubation using Acumen® eX3 (TTP Labtech Ltd., Hertfordshire, United Kingdom). Viral reproductive ratio (R0) was determined using the number of infected cells at 48 hours divided by the number of infected cells at 24 hours. Percent viral growth inhibition was calculated by [1−(R−Rtripledrug)/(RDMSO−Rtripledrug)]*100. Compound potency IP or IC50 was determined by a 4-parameter dose response curve analysis.

[1] = Human immunodeficiency virus 1, NL43

CC1COCc2c1c(=O)c(O)c1n2CCN(Cc2ccc(F)c(Cl)c2)C1=O (stereo not shown) [Compound 25]
IC50 (WT-Integrase): 21 nM
IC50 (HIV-1 (NL4-3 strain); [1]): 351 nM

O=C1c2c(O)c(=O)c3c(n2CCN1Cc1ccc(F)c(Cl)c1)COCC=C3 [Compound 2, 9-(3-chloro-4-fluorobenzyl)-7-hydroxy-10,11-dihydro-1H-oxepino[4′,3′:5,6]pyrido[1,2-a]pyrazine-6,8(3H,9H)-dione]
IC50 (WT-Integrase): 11 nM
IC50 (HIV-1 (NL4-3 strain); [1]): 76 nM

O=C1c2c(O)c(=O)c3c(n2CCN1Cc1ccc(F)c(Cl)c1)COC31CCC2CC21 (stereo not shown) [Compound 13]
IC50 (WT-Integrase): 8 nM
IC50 (HIV-1 (NL4-3 strain); [1]): 333 nM

CCC1COCc2c1c(=O)c(O)c1n2CCN(Cc2ccc(F)cc2)C1=O (stereo not shown) [Compound 6]
IC50 (WT-Integrase): 21 nM
IC50 (HIV-1 (NL4-3 strain); [1]): 492 nM

C/C=C1\COCc2c1c(=O)c(O)c1n2CCN(Cc2ccc(F)c(Cl)c2)C1=O [Compound 5, (Z)-8-(3-chloro-4-fluorobenzyl)-4-ethylidene-6-hydroxy-3,4,9,10-tetrahydropyrano[4′,3′:5,6]pyrido[1,2-a]pyrazine-5,7(1H,8H)-dione]
IC50 (HIV-1 (NL4-3 strain); [1]): 183 nM

CN1C/C=C\Cc2c(n3c(c(O)c2=O)C(=O)N(Cc2ccc(F)c(Cl)c2)CC3)C1=O [Compound 23, (Z)-10-(3-chloro-4-fluorobenzyl)-8-hydroxy-2-methyl-2,3,11,12-tetrahydro-1H-pyrazino[1′,2′:1,6]pyrido[2,3-c]azocine-1,7,9(6H,10H)-trione]
IC50 (HIV-1 (NL4-3 strain); [1]): 273 nM

CC1CCN(C(=O)CN(C)C)Cc2c1c(=O)c(O)c1n2CCN(Cc2ccc(F)c(Cl)c2)C1=O (stereo not shown) [Compound 30]
IC50 (HIV-1 (NL4-3 strain); [1]): 3250 nM

C=C1CCN(C(=O)C(=O)N(C)C)Cc2c1c(=O)c(O)c1n2CCN(Cc2ccc(F)c(Cl)c2)C1=O [Compound 17, 2-(9-(3-chloro-4-fluorobenzyl)-7-hydroxy-5-methylene-6,8-dioxo-4,5,8,9,10,11-hexahydropyrazino[1′,2′:1,6]pyrido[2,3-c]azepin-2(1H,3H,6H)-yl)-N,N-dimethyl-2-oxoacetamide]
IC50 (HIV-1 (NL4-3 strain); [1]): > 4200 nM

CCc1cn(C)c(=O)c2c1c(=O)c(O)c1n2CCN(Cc2ccc(F)c(Cl)c2)C1=O [Compound 24, 8-(3-chloro-4-fluorobenzyl)-4-ethyl-6-hydroxy-2-methyl-9,10-dihydro-1H-pyrazino[1,2-a][1,7]naphthyridine-1,5,7(2H,8H)-trione]
IC50 (HIV-1 (NL4-3 strain); [1]): 1120 nM

C=C1CCOCc2c1c(=O)c(O)c1n2CCN(Cc2ccc(F)c(Cl)c2)C1=O [Compound 28]
IC50 (HIV-1 (NL4-3 strain); [1]): 503 nM

CC(C)c1c(C(=O)N(C)C)n2c(c(O)c1=O)C(=O)N(Cc1ccc(F)cc1)CC2 [Compound 20, 2-(4-fluorobenzyl)-9-hydroxy-7-isopropyl-N,N-dimethyl-1,8-dioxo-2,3,4,8-tetrahydro-1H-pyrido[1,2-a]pyrazine-6-carboxamide]
IC50 (WT-Integrase): 20 nM
IC50 (HIV-1 (NL4-3 strain); [1]): 286 nM

CC1CCNCc2c1c(=O)c(O)c1n2CCN(Cc2ccc(F)c(Cl)c2)C1=O (stereo not shown) [Compound 16, 9-(3-chloro-4-fluorobenzyl)-7-hydroxy-5-methyl-2,3,4,5,10,11-hexahydropyrazino[1′,2′:1,6]pyrido[2,3-c]azepine-6,8(1H,9H)-dione trifluoroacetate salt]
IC50 (HIV-1 (NL4-3 strain); [1]): 487 nM

C=C1CCN(C(=O)CN(C)C)Cc2c1c(=O)c(O)c1n2CCN(Cc2ccc(F)c(Cl)c2)C1=O [Compound 29]
IC50 (HIV-1 (NL4-3 strain); [1]): > 4200 nM

O=C1c2c(O)c(=O)c3c(n2CCN1Cc1ccc(F)c(Cl)c1)COCC1CC31 (stereo not shown) [Compound 3, 2-(3-chloro-4-fluorobenzyl)-11-hydroxy-3,4,8,8a,9,9a-hexahydrocyclopropa[5′,6]oxepino[4′,3′:5,6]pyrido[1,2-a]pyrazine-1,10(2H,6H)-dione]
IC50 (HIV-1 (NL4-3 strain); [1]): 241 nM

C=C1COCc2c1c(=O)c(O)c1n2CCN(Cc2ccc(F)c(Cl)c2)C1=O [Compound 11, 8-(3-chloro-4-fluorobenzyl)-6-hydroxy-4-methylene-3,4,9,10-tetrahydropyrano[4′,3′:5,6]pyrido[1,2-a]pyrazine-5,7(1H,8H)-dione]
IC50 (HIV-1 (NL4-3 strain); [1]): 298 nM

CC(C)c1c(CNC(=O)c2ccon2)n2c(c(O)c1=O)C(=O)N(Cc1ccc(F)c(Cl)c1)CC2 [Compound 10, N-((2-(3-chloro-4-fluorobenzyl)-9-hydroxy-7-isopropyl-1,8-dioxo-2,3,4,8-tetrahydro-1H-pyrido[1,2-a]pyrazin-6-yl)methyl)isoxazole-3-carboxamide]
IC50 (HIV-1 (NL4-3 strain); [1]): 406 nM

C=C1CN(C)C(=O)c2c1c(=O)c(O)c1n2CCN(Cc2ccc(F)c(Cl)c2)C1=O [Compound 21, 8-(3-chloro-4-fluorobenzyl)-6-hydroxy-2-methyl-4-methylene-3,4,9,10-tetrahydro-1H-pyrazino[1,2-a][1,7]naphthyridine-1,5,7(2H,8H)-trione]
IC50 (WT-Integrase): 2 nM
IC50 (HIV-1 (NL4-3 strain); [1]): 155 nM

O=C1c2c(O)c(=O)c3c(n2CCN1Cc1ccc(F)c(Cl)c1)COCCC3 [Compound 1, 9-(3-chloro-4-fluorobenzyl)-7-hydroxy-4,5,10,11-tetrahydro-1H-oxepino[4′,3′:5,6]pyrido[1,2-a]pyrazine-6,8(3H,9H)-dione]
IC50 (WT-Integrase): 58 nM
IC50 (HIV-1 (NL4-3 strain); [1]): 347 nM

O=C1c2c(O)c(=O)c3c(n2CCN1Cc1ccc(F)c(Cl)c1)COC31C=CCC1 (stereo not shown) [Compound 12, 7′-(3-chloro-4-fluorobenzyl)-5′-hydroxy-8′,9′-dihydrospiro[cyclopent[2]ene-1,3′-furo[3′,4′:5,6]pyrido[1,2-a]pyrazine]-4′,6′(1′H,7′H)-dione]
IC50 (HIV-1 (NL4-3 strain)): 1020 nM

Cc1cn(C)c(=O)c2c1c(=O)c(O)c1n2CCN(Cc2ccc(F)c(Cl)c2)C1=O [Compound 22, 8-(3-chloro-4-fluorobenzyl)-6-hydroxy-2,4-dimethyl-9,10-dihydro-1H-pyrazino[1,2-a][1,7]naphthyridine-1,5,7(2H,8H)-trione]
IC50 (WT-Integrase): 1 nM
IC50 (HIV-1 (NL4-3 strain); [1]): 456 nM

CC(C)c1c(CNC(=O)OC(C)(C)C)n2c(c(O)c1=O)C(=O)N(Cc1ccc(F)c(Cl)c1)CC2 [Compound 31, tert-butyl((2-(3-chloro-4-fluorobenzyl)-9-hydroxy-7-isopropyl-1,8-dioxo-2,3,4,8-tetrahydro-1H-pyrido[1,2-a]pyrazin-6-yl)methyl)carbamate]
IC50 (WT-Integrase): 42 nM
IC50 (HIV-1 (NL4-3 strain); [1]): 2610 nM

CCC1COCc2c1c(=O)c(O)c1n2CCN(Cc2ccc(F)c(Cl)c2)C1=O (stereo not shown) [Compound 7]
IC50 (WT-Integrase): 13 nM
IC50 (HIV-1 (NL4-3 strain); [1]): 461 nM

O=C1c2c(O)c(=O)c3c(n2CCN1Cc1ccc(F)cc1)COCCCC3 [Compound 9, 10-(4-fluorobenzyl)-8-hydroxy-3,4,5,6,11,12-hexahydrooxocino[4,3′:5,6]pyrido[1,2-a]pyrazine-7, 9(1H, 1 OH)-dione]
IC50 (HIV-1 (NL4-3 strain)): 961 nM

CC(C)c1c(CN)n2c(c(O)c1=O)C(=O)N(Cc1ccc(F)c(Cl)c1)CC2 [Compound 32, 6-(aminomethyl)-2-(3-chloro-4-fluorobenzyl)-9-hydroxy-7-isopropyl-3,4-dihydro-1H-pyrido[1,2-a]pyrazine-1,8(2H)-dione trifluoroacetate salt]
IC50 (WT-Integrase): 14 nM
IC50 (HIV-1 (NL4-3 strain); [1]): 151 nM

CC1CC12COCc1c2c(=O)c(O)c2n1CCN(Cc1ccc(F)c(Cl)c1)C2=O (stereo not shown) [Compound 8, 8′-(3-chloro-4-fluorobenzyl)-6′-hydroxy-2-methyl-9′,10′-dihydro-1′H-spiro[cyclopropane-1,4′-pyrano[4′,3′:5,6]pyrido[1,2-a]pyrazine]-5′,7′(3′H,8′H)-dione]
IC50 (WT-Integrase): 28 nM
IC50 (HIV-1 (NL4-3 strain); [1]): 507 nM

O=C1c2c(O)c(=O)c3c(n2CCN1Cc1ccc(F)c(Cl)c1)COC31C=CCCC1 (stereo not shown) [Compound 15, 7′-(3-chloro-4-fluorobenzyl)-5′-hydroxy-8′,9′-dihydrospiro[cyclohex[2]ene-1,3′-furo[3′,4′:5,6]pyrido[1,2-a]pyrazine]-4′,6′(1′H,7′H)-dione]
IC50 (HIV-1 (NL4-3 strain); [1]): 401 nM

CC(C)C1COCc2c1c(=O)c(O)c1n2CCN(Cc2ccc(F)cc2)C1=O (stereo not shown) [Compound 27]
IC50 (HIV-1 (NL4-3 strain); [1]): 672 nM

C=C(C)C1COCc2c1c(=O)c(O)c1n2CCN(Cc2ccc(F)c(Cl)c2)C1=O (stereo not shown) [Compound 26]
IC50 (HIV-1 (NL4-3 strain); [1]): 272 nM
